From US12077503B2, “Substituted cyclic amides and their use as herbicides” (FMC CORPORATION, priority 2015, dated 2024)

Columns and labels:
Type in all cases: in vivo
[1] = tested on: Kochia (Kochia scoparia); test: Test A preemergence; conditions: Bassia scoparia, pre-emergence, 240 h, 0 to 100 scale (0 no effect, 100 complete control), read-out: Plant response rating, Kochia; for pest or weed control at 500 g/ha: 500 g ai/ha, preemergence; for pest or weed control at 125 g/ha: Preemergence, 125 g ai/ha
How it was run: (§1)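 Greenhouse, ~10 d after spray; visual injury vs untreated controls, 0 = no effect, 100 = complete control. Preemergence: directed soil spray over planted seeds. Postemergence: plants 2–10 cm, 1–2 leaf stage. Loam/sand blend. Compound in non-phytotoxic solvent with surfactant.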

[2] = tested on: barnyardgrass (Echinochloa crus-galli); test: Test A preemergence; conditions: Echinochloa crus-galli, pre-emergence, 240 h, 0 to 100 scale (0 no effect, 100 complete control), read-out: Plant response rating, Barnyardgrass; for pest or weed control at 500 g/ha: 500 g ai/ha, preemergence; for pest or weed control at 125 g/ha: Preemergence, 125 g ai/ha
How it was run: as §1

[3] = tested on: pigweed (Amaranthus retroflexus); test: Test A preemergence; conditions: Amaranthus retroflexus, pre-emergence, 240 h, 0 to 100 scale (0 no effect, 100 complete control), read-out: Plant response rating, Pigweed; for pest or weed control at 500 g/ha: 500 g ai/ha, preemergence; for pest or weed control at 125 g/ha: Preemergence, 125 g ai/ha
[4] = tested on: ragweed (common ragweed, Ambrosia elatior); test: Test A preemergence; conditions: Ambrosia artemisiifolia, pre-emergence, 240 h, 0 to 100 scale (0 no effect, 100 complete control), read-out: Plant response rating, Ragweed; for pest or weed control at 500 g/ha: 500 g ai/ha, preemergence; for pest or weed control at 125 g/ha: Preemergence, 125 g ai/ha
How it was run: as §1

[5] = tested on: ryegrass, Italian (Italian ryegrass, Lolium multiflorum); test: Test A preemergence; conditions: Lolium multiflorum, pre-emergence, 240 h, 0 to 100 scale (0 no effect, 100 complete control), read-out: Plant response rating, Ryegrass, Italian; for pest or weed control at 500 g/ha: 500 g ai/ha, preemergence; for pest or weed control at 125 g/ha: Preemergence, 125 g ai/ha
How it was run: as §1

[6] = tested on: Galium (catchweed bedstraw, Galium aparine); test: Test A postemergence; conditions: Galium, post-emergence, 240 h, Postemergence, read-out: Plant response rating, Galium; for pest or weed control at 125 g/ha: 125 g ai/ha, visual injury after approx. 10 d, 0 to 100 scale, 0 no effect, 100 complete control; for pest or weed control at 500 g/ha: 500 g ai/ha, visual injury, 0 to 100 scale (0 no effect, 100 complete control), approx. 10 d
How it was run: as §1

[7] = tested on: Kochia (Kochia scoparia); test: Test A postemergence; conditions: Bassia scoparia, post-emergence, 240 h, Postemergence, read-out: Plant response rating, Kochia; for pest or weed control at 125 g/ha: 125 g ai/ha, visual injury after approx. 10 d, 0 to 100 scale, 0 no effect, 100 complete control; for pest or weed control at 500 g/ha: 500 g ai/ha, visual injury, 0 to 100 scale (0 no effect, 100 complete control), approx. 10 d
How it was run: as §1

[8] = tested on: barnyardgrass (Echinochloa crus-galli); test: Test A postemergence; conditions: Echinochloa crus-galli, post-emergence, 240 h, Postemergence, read-out: Plant response rating, Barnyardgrass; for pest or weed control at 125 g/ha: 125 g ai/ha, visual injury after approx. 10 d, 0 to 100 scale, 0 no effect, 100 complete control; for pest or weed control at 500 g/ha: 500 g ai/ha, visual injury, 0 to 100 scale (0 no effect, 100 complete control), approx. 10 d
How it was run: as §1

[9] = tested on: blackgrass (Alopecurus myosuroides); test: Test A postemergence; conditions: Alopecurus myosuroides, post-emergence, 240 h, Postemergence, read-out: Plant response rating, Blackgrass; for pest or weed control at 125 g/ha: 125 g ai/ha, visual injury after approx. 10 d, 0 to 100 scale, 0 no effect, 100 complete control; for pest or weed control at 500 g/ha: 500 g ai/ha, visual injury, 0 to 100 scale (0 no effect, 100 complete control), approx. 10 d
How it was run: as §1

[10] = tested on: corn (Zea mays); test: Test A postemergence; conditions: Zea mays, post-emergence, 240 h, Postemergence; for Corn plant response rating (crop injury, 0 = no effect, 100 = complete kill) at 125 g/ha: 125 g ai/ha, visual injury after approx. 10 d, 0 to 100 scale, 100 complete control; for Corn plant response rating (crop injury, 0 = no effect, 100 = complete kill) at 500 g/ha: 500 g ai/ha, visual injury, 0 to 100 scale (0 no effect, 100 complete control), approx. 10 d
How it was run: as §1

[11] = tested on: giant foxtail (Setaria faberii); test: Test A postemergence; conditions: Setaria faberi, post-emergence, 240 h, Postemergence, read-out: Plant response rating, Foxtail, Giant; for pest or weed control at 125 g/ha: 125 g ai/ha, visual injury after approx. 10 d, 0 to 100 scale, 0 no effect, 100 complete control; for pest or weed control at 500 g/ha: 500 g ai/ha, visual injury, 0 to 100 scale (0 no effect, 100 complete control), approx. 10 d
How it was run: as §1

[12] = tested on: pigweed (Amaranthus retroflexus); test: Test A postemergence; conditions: Amaranthus retroflexus, post-emergence, 240 h, Postemergence, read-out: Plant response rating, Pigweed; for pest or weed control at 125 g/ha: 125 g ai/ha, visual injury after approx. 10 d, 0 to 100 scale, 0 no effect, 100 complete control; for pest or weed control at 500 g/ha: 500 g ai/ha, visual injury, 0 to 100 scale (0 no effect, 100 complete control), approx. 10 d
How it was run: as §1

[13] = tested on: ragweed (common ragweed, Ambrosia elatior); test: Test A postemergence; conditions: Ambrosia artemisiifolia, post-emergence, 240 h, Postemergence, read-out: Plant response rating, Ragweed; for pest or weed control at 125 g/ha: 125 g ai/ha, visual injury after approx. 10 d, 0 to 100 scale, 0 no effect, 100 complete control; for pest or weed control at 500 g/ha: 500 g ai/ha, visual injury, 0 to 100 scale (0 no effect, 100 complete control), approx. 10 d
How it was run: as §1

[14] = tested on: ryegrass, Italian (Italian ryegrass, Lolium multiflorum); test: Test A postemergence; conditions: Lolium multiflorum, post-emergence, 240 h, Postemergence, read-out: Plant response rating, Ryegrass, Italian; for pest or weed control at 125 g/ha: 125 g ai/ha, visual injury after approx. 10 d, 0 to 100 scale, 0 no effect, 100 complete control; for pest or weed control at 500 g/ha: 500 g ai/ha, visual injury, 0 to 100 scale (0 no effect, 100 complete control), approx. 10 d
How it was run: as §1

[15] = tested on: wheat (Triticum aestivum); test: Test A postemergence; conditions: Triticum aestivum, post-emergence, 240 h, Postemergence, read-out: Plant response rating, Wheat; for plant injury at 125 g/ha: 125 g ai/ha, visual injury after approx. 10 d, 0 to 100 scale, 0 no effect, 100 complete control; for plant injury at 500 g/ha: 500 g ai/ha, visual injury, 0 to 100 scale (0 no effect, 100 complete control), approx. 10 d
How it was run: as §1

SMILES | pest or weed control at 500 g/ha [1] [%] | pest or weed control at 125 g/ha [1] [%] | pest or weed control at 500 g/ha [2] [%] | pest or weed control at 125 g/ha [2] [%] | pest or weed control at 500 g/ha [3] [%] | pest or weed control at 125 g/ha [3] [%] | pest or weed control at 500 g/ha [4] [%] | pest or weed control at 125 g/ha [4] [%] | pest or weed control at 500 g/ha [5] [%] | pest or weed control at 125 g/ha [5] [%] | pest or weed control at 125 g/ha [6] [%] | pest or weed control at 500 g/ha [6] [%] | pest or weed control at 125 g/ha [7] [%] | pest or weed control at 500 g/ha [7] [%] | pest or weed control at 125 g/ha [8] [%] | pest or weed control at 500 g/ha [8] [%] | pest or weed control at 125 g/ha [9] [%] | pest or weed control at 500 g/ha [9] [%] | Corn plant response rating (crop injury, 0 = no effect, 100 = complete kill) at 125 g/ha [10] [%] | Corn plant response rating (crop injury, 0 = no effect, 100 = complete kill) at 500 g/ha [10] [%] | other results
CN1C[C@H](c2cccc(C(F)(F)F)c2)[C@@H](C(=O)Nc2ccc(F)c(F)c2F)C1=O [Compound 1389] | 90 | 70 | 100 | 100 | 80 | 70 | 30 | 0 | 90 | 80 | 60 | 70 | 60 | 80 | 90 | 100 | 50 | 50 | 90 | 90 | pest or weed control at 125 g/ha [11]: 80%; pest or weed control at 500 g/ha [11]: 80%; pest or weed control at 125 g/ha [12]: 30%; pest or weed control at 500 g/ha [12]: 70%; pest or weed control at 125 g/ha [13]: 0%; pest or weed control at 500 g/ha [13]: 20%; pest or weed control at 125 g/ha [14]: 70%; pest or weed control at 500 g/ha [14]: 80%; plant injury at 125 g/ha [15]: 60%; plant injury at 500 g/ha [15]: 70%
O=C1NC[C@H](c2nccc(C(F)(F)F)n2)[C@H]1C(=O)Nc1cccc(F)c1F [Compound 1392] | 0 | 0 | 60 | 0 | 0 | 0 | 0 | 0 | 0 | 0 | 0 | 0 | 0 | 0 | 0 | 40 | 0 | 0 | 0 | 20 | pest or weed control at 125 g/ha [11]: 0%; pest or weed control at 500 g/ha [11]: 30%; pest or weed control at 125 g/ha [12]: 0%; pest or weed control at 500 g/ha [12]: 0%; pest or weed control at 125 g/ha [13]: 0%; pest or weed control at 500 g/ha [13]: 0%; pest or weed control at 125 g/ha [14]: 0%; pest or weed control at 500 g/ha [14]: 0%; plant injury at 125 g/ha [15]: 0%; plant injury at 500 g/ha [15]: 30%
